From the supplement of paper PMC10307832

Legend:
Assay in all cases: relative viability (nuclei count vs DMSO), 5 days (fraction); higher = more cells survive
[1] = compound: COc1cc2nc(N3CCCN(C)CC3)nc(NC3CCN(Cc4ccccc4)CC3)c2cc1OC + CC(C)C[C@H](NC(=O)[C@H](Cc1ccccc1)NC(=O)c1cnccn1)B(O)O [Bortezomib] (partner 0.002 µM)
Procedure, shortened: (§1)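 A single step with final 0.05% Triton X-100, 1% formaldehyde and 1 ug/ml Hoechst fixed the cells and stained nuclei 5 days after treatment. Lung cancer cell lines in 1536-well plates had been treated by pin tool the day after seeding with one drug alone or a fixed anchor-drug dose plus five library-drug doses (not always all listed) in √10 steps, and nuclei were counted on 4× images. Relative viability is the ratio of nuclei in treated wells to nuclei in vehicle wells, taken as the median of duplicate plates.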

AZD6482 + Bortezomib = compound: Cc1cc([C@@H](C)Nc2ccccc2C(=O)O)c2nc(N3CCOCC3)cc(=O)n2c1 [AZD6482] + CC(C)C[C@H](NC(=O)[C@H](Cc1ccccc1)NC(=O)c1cnccn1)B(O)O [Bortezomib] (partner 0.002 µM)
Procedure, shortened: as §1

AZD6482 + AZD7762 = compound: Cc1cc([C@@H](C)Nc2ccccc2C(=O)O)c2nc(N3CCOCC3)cc(=O)n2c1 [AZD6482] + NC(=O)Nc1cc(-c2cccc(F)c2)sc1C(=O)N[C@H]1CCCNC1 [AZD7762] (partner 0.2 µM)
Procedure, shortened: as §1

[2] = compound: COc1cc2nc(N3CCCN(C)CC3)nc(NC3CCN(Cc4ccccc4)CC3)c2cc1OC + C[C@@H](Oc1cc(-c2cnn(C3CCNCC3)c2)cnc1N)c1c(Cl)ccc(F)c1Cl [Crizotinib] (partner 1 µM)
Procedure, shortened: as §1

Row | Cell Line | relative viability ([1]; first compound 0.2 µM) | relative viability ([1]; first compound 0.6325 µM) | relative viability ([1]; first compound 2 µM) | relative viability ([1]; first compound 6.325 µM) | relative viability (AZD6482 + Bortezomib; first compound 0.08 µM) | relative viability (AZD6482 + Bortezomib; first compound 0.253 µM) | relative viability (AZD6482 + Bortezomib; first compound 0.8 µM) | relative viability (AZD6482 + Bortezomib; first compound 2.53 µM) | relative viability (AZD6482 + Bortezomib; first compound 8 µM) | relative viability (AZD6482 + AZD7762; first compound 0.08 µM) | relative viability (AZD6482 + AZD7762; first compound 0.253 µM) | relative viability (AZD6482 + AZD7762; first compound 0.8 µM) | relative viability (AZD6482 + AZD7762; first compound 2.53 µM) | relative viability (AZD6482 + AZD7762; first compound 8 µM) | relative viability ([2]; first compound 0.2 µM) | relative viability ([2]; first compound 0.6325 µM) | relative viability ([2]; first compound 2 µM) | relative viability ([2]; first compound 6.325 µM)
1 | PC-14 | 0.984 | 0.72 | 0.981 | 0.461 | 0.785 | 0.917 | 0.913 | 0.67 | 1.02 | 0.417 | 0.302 | 0.324 | 0.26 | 0.194 | 0.932 | 0.883 | 1.08 | 0.83
2 | NCI-H1437 | 0.614 | 0.683 | 0.65 | 0.459 | 0.466 | 0.385 | 0.592 | 0.484 | 0.374 | 1.16 | 1.07 | 1.16 | 1.03 | 0.836 | 0.901 | 0.866 | 1.02 | 0.879
3 | NCI-H460 | 1.04 | 1.05 | 1.14 | 0.864 | 0.957 | 0.956 | 1.17 | 0.685 | 0.958 | 0.618 | 0.674 | 0.791 | 0.459 | 0.568 | 0.833 | 0.878 | 0.893 | 0.313
4 | NCI-H1666 | 0.832 | 0.781 | 0.701 | 0.468 | 0.515 | 0.765 | 0.737 | 0.556 | 0.616 | 0.79 | 0.776 | 0.958 | 0.835 | 0.767 | 0.969 | 0.958 | 0.981 | 0.886
5 | NCI-H1651 | 0.884 | 0.939 | 1.03 | 0.934 | 0.918 | 0.941 | 0.905 | 0.809 | 0.825 | 0.457 | 0.379 | 0.456 | 0.391 | 0.379 | 0.862 | 0.849 | 0.896 | 0.859
6 | NCI-H1755 | 1 | 0.965 | 0.922 | 0.88 | 0.837 | 0.962 | 0.434 | 0.639 | 0.74 | 0.463 | 0.417 | 0.453 | 0.344 | 0.311 | 0.868 | 0.792 | 0.919 | 0.814
7 | HARA | 1.03 | 1.07 | 1.28 | 1.11 | 0.977 | 1.08 | 1.37 |  | 1.13 | 0.424 | 0.338 | 0.269 | 0.224 | 0.516 | 1.01 | 1.02 | 1.18 | 1.13
8 | NCI-H596 | 1.21 | 1.17 | 0.959 | 0.763 | 0.988 | 0.95 | 0.946 | 1.01 | 0.985 | 0.874 | 1.05 | 1.07 | 0.925 | 0.966 | 0.998 | 1.09 | 0.988 | 0.933
9 | NCI-H23 | 1 | 0.943 | 1.2 | 0.918 | 0.958 | 0.861 | 1.29 | 0.621 | 0.861 | 0.317 | 0.223 | 0.236 | 0.201 | 0.219 | 0.417 | 0.556 | 0.59 | 0.546
10 | LCLC-97TM1 | 0.439 | 0.939 | 0.697 | 0.517 | 0.499 | 0.38 | 0.435 |  | 0.351 | 0.344 | 0.157 | 0.442 |  | 0.299 | 0.252 |  | 0.599 | 0.313
11 | EPLC-272H | 0.897 | 0.793 | 0.918 | 0.658 | 0.706 |  | 0.973 | 0.904 | 0.834 | 0.531 | 0.151 | 0.298 | 0.197 | 0.207 | 0.811 | 0.915 | 1.05 | 0.785
12 | NCI-H1915 | 0.97 | 0.973 | 1.02 | 0.957 | 0.861 | 0.86 | 1.04 | 0.849 | 1.05 | 0.672 | 0.538 | 0.669 | 0.631 | 0.639 | 0.909 | 0.825 | 0.947 | 0.866
13 | NCI-H2405 | 0.978 | 0.987 | 1.04 | 0.971 | 0.77 | 0.895 | 1.06 | 0.73 | 0.661 | 0.563 | 0.658 | 0.697 | 0.388 | 0.374 | 0.869 | 0.825 | 0.927 | 0.894
14 | NCI-H322M | 1.31 | 1.28 | 1.12 | 1.2 | 1.18 | 1.22 | 1.13 | 0.795 | 0.871 | 0.647 | 0.623 | 0.587 | 0.421 | 0.405 | 0.873 | 1.01 | 0.973 | 0.915
15 | NCI-H838 | 0.858 | 1.02 | 0.73 | 0.721 | 0.629 | 0.498 | 0.793 | 0.602 | 0.622 | 0.936 | 0.902 | 0.934 | 0.78 | 0.759 | 0.81 | 0.878 | 0.873 | 0.828
16 | CAL-12T | 0.996 | 1.32 | 1.05 | 0.833 | 0.843 |  | 0.895 | 0.426 | 0.597 | 0.686 | 0.647 | 0.677 | 0.468 | 0.665 | 0.529 | 0.464 | 0.753 | 0.477
